23 compounds from patent US11746100B2 (GLOBAL BLOOD THERAPEUTICS, INC., priority 2020, dated 2023) can be followed below.

The assay concerns the target T1, human ferroportin (Homo sapiens, UniProt Q9NP59).
T1 construct: luciferase reporter (read with the Nano-Glo Luciferase Assay System); expressed in transfected cells; host or cells: CHO cells, stably transfected, expression induced with doxycycline
T1 sequence (Q9NP59 1-571): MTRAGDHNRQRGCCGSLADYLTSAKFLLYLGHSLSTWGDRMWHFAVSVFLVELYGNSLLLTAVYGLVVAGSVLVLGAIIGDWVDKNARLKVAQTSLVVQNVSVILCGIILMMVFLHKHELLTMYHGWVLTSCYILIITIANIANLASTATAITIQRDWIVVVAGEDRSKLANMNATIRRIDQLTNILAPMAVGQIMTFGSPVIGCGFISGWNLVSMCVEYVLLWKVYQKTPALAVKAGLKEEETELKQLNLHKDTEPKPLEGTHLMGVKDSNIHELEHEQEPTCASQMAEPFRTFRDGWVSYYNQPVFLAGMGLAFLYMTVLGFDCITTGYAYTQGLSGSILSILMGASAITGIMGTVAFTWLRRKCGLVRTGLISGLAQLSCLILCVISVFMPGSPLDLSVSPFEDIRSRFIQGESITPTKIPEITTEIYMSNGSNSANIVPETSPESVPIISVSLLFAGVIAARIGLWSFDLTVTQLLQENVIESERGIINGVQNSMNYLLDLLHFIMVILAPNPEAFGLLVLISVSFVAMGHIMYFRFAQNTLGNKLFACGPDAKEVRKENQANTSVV
The experiment in a line: Biological in-vitro ferroportin internalization assay (luciferase reporter). In kind it is cell-based. Conditions: average pEC50; stably-transfected CHO cell line expressing human ferroportin tagged to a luciferase reporter; 6 h incubation with test compound. The procedure, abridged:
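Stably transfected CHO cells expressing luciferase-tagged human ferroportin, plated 24 h with ferric ammonium citrate and induced with doxycycline for 24 h. Compounds incubated 6 h, then luciferase activity measured by Nano-Glo; average pEC50 reported.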
(In general: In a reporter assay the amount or activity of a reporter protein is the signal.)
A word on the pEC50: it is the negative decadic logarithm of the EC50, by convention in mol/L. Low readings indicate a large EC50, high ones a small EC50. `[2H]C([2H])([2H])N(CCOc1ccnc(-c2nc3c(c(N(C)CC(=O)NC(C)(C)C)n2)CCC3)c1)C([2H])([2H])[2H]` [Compound 508, N-tert-butyl-2-{[2-(4-{2-[di(2H3)methylamino]ethoxy}pyridin-2-yl)-5H,6H,7H-cyclopenta[d]pyrimidin-4-yl](methyl)amino}acetamide] had a pEC50 of 7.6. With `CCOc1ccnc(-c2nc3c(c(N(C)CC(=O)Nc4ccc(OC)nc4)n2)CCC3)c1` [Compound 223, 2-{[2-(4-ethoxypyridin-2-yl)-5H,6H,7H-cyclopenta[d]pyrimidin-4-yl](methyl)amino}-N-(6-methoxypyridin-3-yl)acetamide] the figure was 7.8; with `CN(CC(=O)N1CCOCC1)c1nc(-c2ccccn2)nc2c1CCC2` [Compound 86, 2-{methyl[2-(pyridin-2-yl)-5H,6H,7H-cyclopenta[d]pyrimidin-4-yl]amino}-1-(morpholin-4-yl)ethan-1-one], 6.8. Then `COc1ccc(NC(=O)CN(C)c2nc(-c3cc(OCC(C)(C)O)ccn3)nc3c2CCC3)nc1` [Compound 214, 2-({2-[4-(2-hydroxy-2-methylpropoxy)pyridin-2-yl]-5H,6H,7H-cyclopenta[d]pyrimidin-4-yl}(methyl)amino)-N-(5-methoxypyridin-2-yl)acetamide], with 7.8; and `COc1ccnc(-c2nc3c(c(N(C)CC(=O)NC4(C)CCOC4)n2)CCC3)c1` (centres unmarked) [Compound 146, 2-{[2-(4-methoxypyridin-2-yl)-5H,6H,7H-cyclopenta[d]pyrimidin-4-yl](methyl)amino}-N-(3-methyloxolan-3-yl)acetamide], with 6.8; and `CN(CC(=O)NC(C)(C)C)c1nc(-c2cnc(O)cn2)nc2c1CCC2` [Compound 28, N-tert-butyl-2-{[2-(5-hydroxypyrazin-2-yl)-5H,6H,7H-cyclopenta[d]pyrimidin-4-yl](methyl)amino}acetamide], with 5.9. The compound `CNCCOc1ccnc(-c2nc3c(c(N(C)CC(=O)NC(C)(C)C)n2)CCC3)c1` [Compound 419, N-tert-butyl-2-[methyl(2-{4-[2-(methylamino)ethoxy]pyridin-2-yl}-5H,6H,7H-cyclopenta[d]pyrimidin-4-yl)amino]acetamide] returned a pEC50 of 7.6. With `CN(c1nc(-c2ccccn2)nc2c1CCC2)C(C)(C)C(=O)NC(C)(C)C` [Compound 19, N-tert-butyl-2-methyl-2-{methyl[2-(pyridin-2-yl)-5H,6H,7H-cyclopenta[d]pyrimidin-4-yl]amino}propanamide] the figure was 5.4; with `COc1ccnc(-c2nc3c(c(N4CCCCCC4)n2)CCC3)c1` [Compound 53, 1-[2-(4-methoxypyridin-2-yl)-5H,6H,7H-cyclopenta[d]pyrimidin-4-yl]azepane], 6.6. With `CC(C)[C@H](O)COc1ccnc(-c2nc3c(c(N(C)CC(=O)NC(C)(C)C)n2)CCC3)c1` [Compound 386, N-tert-butyl-2-[(2-{4-[(2S)-2-hydroxy-3-methylbutoxy]pyridin-2-yl}-5H,6H,7H-cyclopenta[d]pyrimidin-4-yl)(methyl)amino]acetamide] the figure was 8.4. Turning to `COc1ccc(NC(=O)CN(C)c2nc(-c3cc(OCCF)ccn3)nc3c2CCC3)cn1` [Compound 242, 2-({2-[4-(2-fluoroethoxy)pyridin-2-yl]-5H,6H,7H-cyclopenta[d]pyrimidin-4-yl}(methyl)amino)-N-(6-methoxypyridin-3-yl)acetamide], the pEC50 came to 7.7. Then `COc1ccnc(-c2nc3c(c(N(C)CC(=O)N(C)C)n2)CCC3)c1` [Compound 157, 2-{[2-(4-methoxypyridin-2-yl)-5H,6H,7H-cyclopenta[d]pyrimidin-4-yl](methyl)amino}-N,N-dimethylacetamide], with 7.3. Consider `CC(C)NC(=O)CN(C)c1nc(-c2cc(OCC(C)(C)O)ccn2)nc2c1C(C)(C)CC2` [Compound 439, 2-({2-[4-(2-hydroxy-2-methylpropoxy)pyridin-2-yl]-5,5-dimethyl-5H,6H,7H-cyclopenta[d]pyrimidin-4-yl}(methyl)amino)-N-(propan-2-yl)acetamide], for which the negative-log EC50 (pEC50) was 7.8. In the case of `O=C1CN(c2nc(-c3ccccn3)nc3c2CCC3)CCCN1` [Compound 47, 4-[2-(pyridin-2-yl)-5H,6H,7H-cyclopenta[d]pyrimidin-4-yl]-1,4-diazepan-2-one], the pEC50 stood at 5.7. Then `Cc1ccc(NC(=O)CN(C)c2nc(-c3cc(OC4COC4)ccn3)nc3c2CCC3)cn1` [Compound 324, 2-[methyl({2-[4-(oxetan-3-yloxy)pyridin-2-yl]-5H,6H,7H-cyclopenta[d]pyrimidin-4-yl})amino]-N-(6-methylpyridin-3-yl)acetamide], with 7.4. With `Cc1ccnc(-c2nc3c(c(N4CCCO[C@@H]5CCC[C@@H]54)n2)CCC3)c1` [Compound 49, 2-{4-[(5aS,8aR)-octahydro-2H-cyclopenta[b][1,4]oxazepin-5-yl]-5H,6H,7H-cyclopenta[d]pyrimidin-2-yl}-4-methylpyridine] the figure was 7.1; with `CN(C)CCOc1ccnc(-c2nc3c(c(N(C)CC(=O)Nc4cnn(C5CC5)c4)n2)CCC3)c1` [Compound 410, N-(1-cyclopropyl-1H-pyrazol-4-yl)-2-[(2-{4-[2-(dimethylamino)ethoxy]pyridin-2-yl}-5H,6H,7H-cyclopenta[d]pyrimidin-4-yl)(methyl)amino]acetamide], 7.3. `COc1ccnc(-c2nc3c(c(N(C)CC(=O)N(C)C(C)(C)C)n2)CCC3)c1` [Compound 156, N-tert-butyl-2-{[2-(4-methoxypyridin-2-yl)-5H,6H,7H-cyclopenta[d]pyrimidin-4-yl](methyl)amino}-N-methylacetamide] displayed a pEC50 of 7.9.

For `COc1ccc(NC(=O)CN(C)c2nc(-c3cc(OCCO)ccn3)nc3c2CCC3)nc1` [Compound 209, 2-({2-[4-(2-hydroxyethoxy)pyridin-2-yl]-5H,6H,7H-cyclopenta[d]pyrimidin-4-yl}(methyl)amino)-N-(5-methoxypyridin-2-yl)acetamide], the pEC50 was found to be 8. With `COc1ccnc(-c2nc3c(c(N(C)CC(=O)Nc4ccc(OC)nc4)n2)CCC3)c1` [Compound 151, 2-{[2-(4-methoxypyridin-2-yl)-5H,6H,7H-cyclopenta[d]pyrimidin-4-yl](methyl)amino}-N-(6-methoxypyridin-3-yl)acetamide] the figure was 8.1; with `CN(CC(=O)N1CCCCCC1)c1nc(-c2cc(OCCO)ccn2)nc2c1CCC2` [Compound 357, 1-(azepan-1-yl)-2-({2-[4-(2-hydroxyethoxy)pyridin-2-yl]-5H,6H,7H-cyclopenta[d]pyrimidin-4-yl}(methyl)amino)ethan-1-one], 7.7; with `Cc1ccnc(-c2nc3c(c(N(C)CC(=O)Nc4cccc(F)c4)n2)CCC3)c1` [Compound 66, N-(3-fluorophenyl)-2-{methyl[2-(4-methylpyridin-2-yl)-5H,6H,7H-cyclopenta[d]pyrimidin-4-yl]amino}acetamide], 7.7.

In turn, `CN(c1nc(-c2ccccn2)nc2c1CCC2)[C@H]1CCN(c2ccncc2)C1=O` [Compound 208, (3S)-3-{methyl[2-(pyridin-2-yl)-5H,6H,7H-cyclopenta[d]pyrimidin-4-yl]amino}-1-(pyridin-4-yl)pyrrolidin-2-one] yielded a pEC50 of 5.7.
